Experimental data taken from US7445894B2, “Compositions and methods for detection and isolation of phosphorylated molecules” (priority 2002, dated 2008).

Assays:
[1] = molecular target: T1, ovalbumin (Gallus gallus, UniProt P01012); assay: Fluorescence polarization of Compound 2-Ga3+ with phosphoprotein; type: binding; conditions: 1.0 μM Compound 2, 100 μM ovalbumin plus 1 μM gallium chloride
T1 construct: purchased Sigma Chemical Company A-7641
T1 sequence (P01012 1-386): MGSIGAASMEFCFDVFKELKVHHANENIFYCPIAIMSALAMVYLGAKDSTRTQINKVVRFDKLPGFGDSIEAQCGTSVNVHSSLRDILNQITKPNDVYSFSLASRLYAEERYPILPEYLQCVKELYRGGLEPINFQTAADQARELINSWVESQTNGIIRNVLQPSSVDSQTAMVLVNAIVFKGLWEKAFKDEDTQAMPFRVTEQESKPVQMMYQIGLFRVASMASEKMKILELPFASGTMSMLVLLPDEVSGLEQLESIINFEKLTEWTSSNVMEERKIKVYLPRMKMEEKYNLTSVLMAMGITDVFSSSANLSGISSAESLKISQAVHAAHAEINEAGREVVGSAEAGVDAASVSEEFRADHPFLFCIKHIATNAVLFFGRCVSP
Experimental: First, an assay was conducted with a (1) phosphoprotein (ovalbumin) and a (2) control non-phosphorylated protein (lysozyme). A modified binding solution containing 1.0 μM Compound 2 was incubated in 50 mM 2-(N-morpholino)ethanesulfonic acid (pH 3.0 to 3.5), 500 mM NaCl at room temperature in parallel to solutions containing, in addition, (a) 1 μM gallium chloride, (b) 100 μM lysozyme plus 1 μM gallium chloride, or (c) and 100 μM ovalbumin plus 1 μM gallium chloride. The fluorescence polarization of the resulting solutions was then measured in a fluorescence spectrophotometer with excitation at 530 nm and emission at 545 to 700 nm. The integrated polarized emission spectra yielded anisotropy “r values” of: r=0.10+/−0.003+/−0.02 (Compound 2 plus gallium); r=0.10+/−0.002 (Compound 2 plus lysozyme non-phosphorylated control); r=0.34+/−0.002 (Compound 2 plus gallium plus ovalbumin), indicating phosphorylation-dependent binding of the Compound 2 to this phosphoprotein (see FIG. 10A)

[2] = molecular target: T2, pDSIP (Oryctolagus cuniculus, UniProt P01158); assay: Phosphopeptide detection on HydroGel microarray; conditions: monophosphorylated peptide, binding solution with gallium chloride
T2 construct: purchased SynPep Corporation
Experimental: The peptide was loaded in a two-fold dilution series from […] on the microarray.
Two peptides, Kemptide and pDSIP, were arrayed on to HydroGel coated slides (Perkin Elmer) from a source plate (384-well) with a concentration of 0.03125 to 2 mg/mL peptide in water. The amino acid sequence of Kemptide is LRRASLG (SEQ ID NO. 1, MW 771.9) the amino acid sequence of pDSIP is […] (SEQ ID NO. 2, MW 929.5), wherein the serine residue is substituted with PO2H. Arrays were spotted using a manual glass slide arrayer (V & P Scientific, San Diego, Calif.) fixed with 4 rows of 8 pins (32 total), ˜500 micron diameter spot size, […] horizontal pitch and 750 micron vertical pitch (pitch=center to center spacing of spots). The hand arrayer collected 6 nL of peptide from the source plate and transferred ˜6 nL to the array surface by direct contact. The resultant peptide concentration was 0.18 to 12 ng/spot. Peptides were arrayed in replicates of 6, resulting in an array of 84 spots. For specific detection of pDSIP, the phosphopeptide, slides were incubated for 1 hour on a rotator in 1 μM dye of compound 2 in buffer containing 0.5 M NaCl, 20% 1,2-propanediol, 1 μM GaCl3, and 0.05 M NaOAc, pH 4.0. Slides were then washed for 1 hour on a rotator in 0.05 M NaOAc, pH 4.0, containing 10% methanol followed by a 15-minute water wash. […]

[3] = molecular target: T2, pDSIP; assay: Total phosphopeptide detection on microarray with binding solution; conditions: 1 μM Compound 2, 1 μM GaCl3, pH 4.0
Experimental: (A) Three pairs of peptides, the phosphorylated and the non-phosporylated forms of Kemptide, pp60 c-src and DSIP, were arrayed on to HydroGel coated slides (Perkin Elmer) from a source plate (384-well) with a concentration of 0.95 μg/ml-0.5 mg/ml peptide in water, using the BioChip Arrayer™ (Perkin Elmer) as described in Example 20. For specific detection of the phosphopeptides on the array, the slides were incubated for 45 minutes on a rotisserie in a binding solution comprising 1 μM Compound 2, in buffer containing 0.5 M NaCl, 20% 1,2 propanediol, 1 μM GaCl3, and 0.05 M sodium acetate, pH 4.0. Slides were then washed three times for 15 minutes on a rotisserie in 0.05 M sodium acetate, pH 4.0, containing 4% acetonitrile followed by a 15 minute water wash. Slides were then spun briefly in a microarray high-speed centrifuge affixed with a rotor with a slide holder (Telechem) at ˜6000 rpm to remove excess liquid. After slides were dry, the arrays were imaged using the ScanArray® 5000 XL Microarray Analysis System (Packard Instrument Co., Meriden, Conn.) using the 543.5 nm laser and 570 nm emission filter. […] Using the 543.5 nm excitation and 570 nm emission filter, there was no signal detected. Using the 632.8 nm excitation and 670 nm emission filter, pp60 c-src (pY) was specifically detected to a sensitivity of 5.2 pg.

With Rhod-5F [Compound 2] the anisotropy r value [1] was 0.34+/−0.002, the “amount detectable on HydroGel microarray” value [2] was 300 fg and the “amount specifically labeled on microarray” value [3] was 1.3 to 2.6 pg.
